In patent publication US5827883A, “Dermatological use of vitamin D derivatives” (priority 1995, dated 1998):
Like-named read-outs stand apart in the source and are kept apart here.

Experiments:
[1] = Calcium liability (tolerance test in mice); settings: mouse, in vivo, sc
From the text: This routine test gives a global picture of calcemic liability. Profound changes in calcium homeostasis strongly affect the weight development of the animals. This parameter was used as a primary test for tolerance. Mice (25-30 g body weight.) received daily subcutaneous administrations of the vitamin D derivative for 4 consecutive days. Body weight was registered just before and at the end of a 5 day treatment period.

human VDR = biological target: T1, human VDR (Homo sapiens, UniProt P11473); test: VDR activation (transcription activation assay; COS cells cotransfected with human VDR and VDRE3-luciferase reporter); format: cell-based; settings: human VDR (pSG5), VDRE3 rat osteocalcin / tk promoter / luciferase reporter, concentration giving half-maximal activity (8-10 fold luciferase induction), read-out: Vitamin D Receptor Activation ED50
T1 construct: expressed in transfected cells; host or cells: COS cells
T1 sequence (P11473 1-427): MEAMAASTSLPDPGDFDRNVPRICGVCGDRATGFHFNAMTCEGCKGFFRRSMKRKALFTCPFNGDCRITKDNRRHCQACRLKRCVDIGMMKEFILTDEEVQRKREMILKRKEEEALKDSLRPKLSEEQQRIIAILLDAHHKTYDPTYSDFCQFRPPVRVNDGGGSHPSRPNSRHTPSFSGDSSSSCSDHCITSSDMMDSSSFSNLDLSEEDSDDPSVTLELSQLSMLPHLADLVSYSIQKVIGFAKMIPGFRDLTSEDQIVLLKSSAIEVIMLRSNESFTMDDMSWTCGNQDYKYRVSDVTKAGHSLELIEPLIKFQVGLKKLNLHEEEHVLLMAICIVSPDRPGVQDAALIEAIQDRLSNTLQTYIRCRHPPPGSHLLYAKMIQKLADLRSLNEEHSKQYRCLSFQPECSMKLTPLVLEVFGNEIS
From the text: In order to measure the activation of the vitamin D receptor (VDR) by vitamin D analogs in cells a transcription activation assay was used. COS cells were cotransfected with the human VDR (expressed in pSG5) and a reporter gene containing three response elements (VDRE3) from the rat osteocalcin gene, the thymidine kinase basal promoter, and the luciferase reporter gene.

[2] = mice 25-30 g, daily subcutaneous administration for 4 consecutive days, body weight before and at end of 5 day treatment period, read-out: HTD in mice (highest tolerated dose, dose which results in zero weight gain)

Structure (SMILES) | MTD at 120 h [1, 2] [mg/kg] | EC50 (human VDR) [nM] | MTD at 120 h [1] [mg/kg]
C[C@H](C(=O)OCC1(O)CCCCC1)[C@H]1CC[C@H]2/C(=C/C=C3C[C@@H](O)C[C@H](O)C3)CCC[C@]12C [Example 8, (7E)-(1R,3R,20S)-1,3-Dihydroxy-20-methyl-19-nor-9,10-seco-pregna-5,7-dien-21-oic acid 1-hydroxy-cyclohexyl methyl ester] | 1 | 38 | –
C[C@H](C(=O)OCC1(O)CCCCCC1)[C@H]1CC[C@H]2/C(=C/C=C3C[C@@H](O)C[C@H](O)C3)CCC[C@]12C [Example 10, (7E)-(1R,3R,20S)-1,3-Dihydroxy-20-methyl-19-nor-9,10-seco-pregna-5,7-dien-21-oic acid 1-hyddroxy-cycloheptylmethyl ester] | > 6 | 31 | –
C[C@@H](COC(=O)C(C)(C)O)[C@H]1CC[C@H]2/C(=C/C=C3C[C@@H](O)C[C@H](O)C3)CCC[C@]12C [Example 21, 2-Hydroxy-2-methyl-propionic acid-(7E)-(1R,3R,20R)-1,3-dihydroxy-20-methyl-19-nor-9,10-seco-pregna-5,7-dien-21-yl ester] | > 9 | 0.55 | –
C[C@H](C(=O)OCC1(O)CCCC1)[C@H]1CC[C@H]2/C(=C/C=C3C[C@@H](O)C[C@H](O)C3)CCC[C@]12C [Example 7, (7E)-(1R,3R,20S)-1,3-Dihydroxy-20-methyl-19-nor-9,10-seco-pregna-5,7-dien-21-oic acid 1-hydroxy-cyclopentylmethyl ester] | > 5 | 18 | –
C=C1/C(=C\C=C2/CCC[C@]3(C)[C@@H]([C@H](C)COC(=O)C(O)(CC)CC)CC[C@@H]23)C[C@@H](O)C[C@@H]1O [Example 24, 2-Ethyl-2-hydroxy-butyric acid-(5Z,7E)-(1S,3R,20S)-1,3-dihydroxy-20-methyl-9,10-seco-pregna-5,7,10 (19)-trien-21-yl ester] | 2.5 | 18 | –
C=C1/C(=C\C=C2/CCC[C@]3(C)[C@@H]([C@@H](C)COC(=O)C(C)(C)O)CC[C@@H]23)C[C@@H](O)C[C@@H]1O [Example 20, 2-Hydroxy-2-methyl-propionic acid-(5Z,7E)-(1S,3R,20R)-1,3-dihydroxy-20-methyl-9,10-seco-pregna-5,7,10 (19)-trien-21-yl ester] | – | 0.82 | > 10
C=C1/C(=C\C=C2/CCC[C@]3(C)[C@@H]([C@H](C)COC(=O)C(C)(C)C)CC[C@@H]23)C[C@@H](O)C[C@@H]1O [Example 22, 2,2-Dimethyl-propionic acid (5Z,7E)-(1R,3R)-1,3-dihydroxy-23,24-dinor-9,10-secochola-5,7-dien-22-yl ester] | – | 141 | 9
C=C1/C(=C\C=C2/CCC[C@]3(C)[C@@H]([C@H](C)CCCC(C)(C)O)CC[C@@H]23)C[C@@H](O)C[C@@H]1O [Calcitriol, calcitriol, reference compound] | 0.0005 | – | –
C=C1/C(=C\C=C2/CCC[C@]3(C)[C@@H]([C@H](C)C(=O)OCC4(O)CCCCC4)CC[C@@H]23)C[C@@H](O)C[C@@H]1O [Example 9, (5Z,7E)-(1R,3R,20S)-1,3-Dihydroxy-20-methyl-9,10-seco-pregna-5,7,10-trien-21-oic acid 1-hydroxy-cyclohexylmethyl ester] | 1 | 5.6 | –
C=C1/C(=C\C=C2/CCC[C@]3(C)[C@@H]([C@@H](C)COC(=O)C(C)(C)C)CC[C@@H]23)C[C@@H](O)C[C@@H]1O [Example 19, 2,2-Dimethyl-propionic acid-(5Z,7E)-(1S,3R,20R)-1,3-dihydroxy-20-methyl-9,10-seco-pregna-5,7,10 (19)-trien-21-yl ester] | – | 0.28 | > 6
C[C@H](C(=O)OCCC1(O)CCCC1)[C@H]1CC[C@H]2/C(=C/C=C3C[C@@H](O)C[C@H](O)C3)CCC[C@]12C [Example 11, (7E)-(1R,3R,20S)-1,3-Dihydroxy-20-methyl-19-nor-9,10-seco-pregna-5,7-dien-21-oic acid 2-(1-hyddroxy-cyclopentyl)-ethyl ester] | > 6 | 180 | –
C=C1/C(=C\C=C2/CCC[C@]3(C)[C@@H]([C@H](C)COC(=O)CC(C)(O)C(F)(F)F)CC[C@@H]23)C[C@@H](O)C[C@@H]1O (stereo partly drawn) [Example 28] | 0.5 | 0.53 | –
C=C1/C(=C\C=C2/CCC[C@]3(C)[C@@H]([C@H](C)COC(=O)CC(C)(O)CC)CC[C@@H]23)C[C@@H](O)C[C@@H]1O (mixture of isomers) [Example 29, 1:1 Mixture of (R)-and-(S)-3-hydroxy-3-methyl-pentanoic acid-(5Z,7E)-(1S,3R,20S)-1,3-dihydroxy-20-methyl-9,10-seco-pregna-5,7,10 (19)-trien-21-yl ester] | – | 2.5 | 7
C=C1/C(=C\C=C2/CCC[C@]3(C)[C@@H]([C@H](C)COC(=O)C(C)(C)O)CC[C@@H]23)C[C@@H](O)C[C@@H]1O [Example 23, 2-Hydroxy-2-methyl-propionic acid-(5Z,7E)-(1S,3R,20S)-1,3-dihydroxy-20-methyl-9,10-seco-pregna-5,7,10 (19)-trien-21-yl ester] | – | 83 | > 11
